This note sets out measurements from PubChem BioAssay AID200 (DTP/NCI, 2004).

SMILES strings stand for the structures. Toxic doses and inconclusive results are not listed.

The test system of this test is B6C3F1 mice, B16 melanoma ip, median survival T/C. Kind of test: NCI In Vivo Anticancer Drug Screen. Data for tumor model B16 Melanoma (intraperitoneal) in B6C3F1 mice. The conditions noted are these: endpoint: median survival time, schedule: Q01DX009 (ip), higher = longer survival. The procedure, abridged: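 Readout: survival or tumor size in treated mice relative to vehicle controls (T/C). Model uses transplantable tumors grown in mice.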

The mark [1] stands for this setting: dose: 25.0 mg/kg/injection, vehicle: saline with Tween-80.
Where [2] appears, read: dose: 50.0 mg/kg/injection, vehicle: saline with Tween-80.
The mark [3] stands for this setting: dose: 100.0 mg/kg/injection, vehicle: saline with Tween-80.
The mark [4] stands for this setting: dose: 200.0 mg/kg/injection, vehicle: saline with Tween-80.
Setting [5] is: dose: 400.0 mg/kg/injection, vehicle: saline with Tween-80.
Where [6] appears, read: dose: 12.5 mg/kg/injection, vehicle: saline.
[7] abbreviates: dose: 25.0 mg/kg/injection, vehicle: saline.
Where [8] appears, read: dose: 50.0 mg/kg/injection, vehicle: saline.
The mark [9] stands for this setting: dose: 6.25 mg/kg/injection, vehicle: saline with Tween-80.
Where [10] appears, read: dose: 12.5 mg/kg/injection, vehicle: saline with Tween-80.
The mark [11] stands for this setting: dose: 6.25 mg/kg/injection, vehicle: Klucel (hydroxypropylcellulose) (HPC).

In the case of `CCCCCCCCCCS(=O)CC(CO)NC(=O)/C=C/c1c(C)[nH]c(=O)[nH]c1=O` (stereo not given), the T/C was 106 % of control (dose: 0.37 mg/kg/injection, vehicle: distilled water + Tween-80); 106 % of control (dose: 0.37 mg/kg/injection, vehicle: water); 95 % of control (dose: 0.75 mg/kg/injection, vehicle: distilled water + Tween-80); 106 % of control (dose: 0.75 mg/kg/injection, vehicle: water); 94 % of control (dose: 1.5 mg/kg/injection, vehicle: distilled water + Tween-80); 108 % of control (dose: 1.5 mg/kg/injection, vehicle: water). The T/C is 100 % of control (dose: 3.0 mg/kg/injection, vehicle: distilled water + Tween-80); 117 % of control (dose: 3.0 mg/kg/injection, vehicle: water); 109 % of control (dose: 6.0 mg/kg/injection, vehicle: distilled water + Tween-80); 114 % of control (dose: 6.0 mg/kg/injection, vehicle: water).

Regarding `NC(=O)c1cc(Cl)nc2nc(Cl)nc(N)c12`, the T/C is 92 % of control under setting [1]; 101 % of control under setting [2]; 86 % of control under setting [3]; 98 % of control under setting [4]; 106 % of control under setting [5].

In the case of `CC(C)n1cc2c(N)ncnc2n1`, the T/C was 93 % of control under setting [1], 91 % of control under setting [2] and 86 % of control under setting [3].

In the case of `C[C@@H]1C[C@@H]([C@H](O)CC2CC(=O)NC(=O)C2)C(=O)[C@@H](C)C1`, the T/C under setting [6] was 105 % of control, the T/C under setting [7] is 111 % of control and the T/C under setting [8] was 106 % of control.

For the compound `CCCCCCCCCCNCCS`, the T/C reads like this: (dose: 5.0 mg/kg/injection, vehicle: Klucel (hydroxypropylcellulose) (HPC)) 88 % of control; (dose: 10.0 mg/kg/injection, vehicle: Klucel (hydroxypropylcellulose) (HPC)) 99 % of control; (dose: 20.0 mg/kg/injection, vehicle: Klucel (hydroxypropylcellulose) (HPC)) 104 % of control.

For the compound `O=C(Nc1ccc(Cl)c(Cl)c1)Nc1c(Oc2ccc(Cl)c(Cl)c2)ccc(Cl)c1S(=O)(=O)O`, the T/C under setting [9] is 99 % of control; the T/C under setting [10] is 101 % of control; the T/C under setting [1] is 97 % of control; the T/C under setting [2] is 99 % of control; the T/C under setting [3] was 97 % of control; the T/C under setting [4] was 99 % of control.

On to `CC1(C)COCN1COCCOCN1COCC1(C)C`, for which the T/C runs as follows: (dose: 6.25 mg/kg/injection, vehicle: saline) 94 % of control; under setting [6], 96 % of control; under setting [7], 101 % of control; under setting [8], 115 % of control; (dose: 100.0 mg/kg/injection, vehicle: saline) 113 % of control.

Regarding `CNC(=O)O/N=C(\CN=[N+]=[N-])C(C)(C)C`, the T/C reads like this: (dose: 0.12 mg/kg/injection, vehicle: saline) 104 % of control; (dose: 0.25 mg/kg/injection, vehicle: saline) 99 % of control; (dose: 0.5 mg/kg/injection, vehicle: saline) 118 % of control; (dose: 1.0 mg/kg/injection, vehicle: saline) 101 % of control.

Consider `Cc1ccc(N=NN(C)C)cc1`, for which the T/C under setting [1] was 100 % of control, the T/C under setting [2] was 110 % of control and the T/C under setting [3] was 107 % of control.

As to `CC(=O)NC(Cc1ccc(F)cc1)C(=O)O` (stereo not given), the T/C was 123 % of control under setting [1]; 121 % of control under setting [2]; 121 % of control under setting [3]; 110 % of control under setting [4]; 111 % of control under setting [5]; 121 % of control (dose: 800.0 mg/kg/injection, vehicle: saline with Tween-80).

Take `C=C(C)[C@]12CC(C)C34OC(/C=C\C=C\CCCCCCCCC)(O[C@@H]1[C@@H]3[C@@H]1O[C@]1(CO)[C@@H](O)[C@]1(O)C(=O)C(C)=C[C@@H]41)O2` (stereo not given in full): the T/C is 110 % of control (dose: 0.09 mg/kg/injection, vehicle: distilled water + alcohol); 110 % of control (dose: 0.18 mg/kg/injection, vehicle: distilled water + alcohol); 104 % of control (dose: 0.37 mg/kg/injection, vehicle: distilled water + alcohol).

Consider `C/C=C/c1cc2c(c(=O)o1)C(=O)[C@@H](O)[C@H](C)O2`, for which the T/C runs as follows: under setting [9], 98 % of control; under setting [10], 103 % of control; under setting [1], 100 % of control; under setting [2], 118 % of control; under setting [3], 109 % of control; under setting [4], 103 % of control.

On to `Nc1nc(Cl)c2ncn(C3OC(CO)C(O)C3O)c2n1` (stereo not given), for which the T/C is 98 % of control under setting [3], 100 % of control under setting [4] and 101 % of control under setting [5].

As for `O=NN(CCCl)C(=O)NC1[C@H](O)CCC[C@@H]1O` (stereo not given in full), the T/C is 159 % of control (dose: 0.62 mg/kg/injection, vehicle: saline); 225 % of control (dose: 1.25 mg/kg/injection, vehicle: saline); 251 % of control (dose: 2.5 mg/kg/injection, vehicle: saline); 190 % of control (dose: 5.0 mg/kg/injection, vehicle: saline).

For `COc1ccc(C(=S)N2CCN(c3ccccc3)CC2)cc1`, the T/C (dose: 3.13 mg/kg/injection, vehicle: saline with Tween-80) is 98 % of control; the T/C under setting [9] was 91 % of control; the T/C under setting [10] was 93 % of control; the T/C under setting [1] is 101 % of control.

As for `O=C(O)/C=C/C(=O)Nc1ccc(Cl)c(Cl)c1`, the T/C under setting [11] is 112 % of control and the T/C (dose: 400.0 mg/kg/injection, vehicle: Klucel (hydroxypropylcellulose) (HPC)) was 110 % of control.

Consider `CNC(=O)OCc1c(COC(=O)NC)c(-c2ccc(F)cc2)n2c1CCC2`, for which the T/C by setting is: (dose: 0.78 mg/kg/injection, vehicle: Klucel (hydroxypropylcellulose) (HPC)) 114 % of control; (dose: 1.56 mg/kg/injection, vehicle: Klucel (hydroxypropylcellulose) (HPC)) 108 % of control; (dose: 3.12 mg/kg/injection, vehicle: Klucel (hydroxypropylcellulose) (HPC)) 122 % of control; under setting [11], 117 % of control.

Regarding `CN(C)N=Nc1ccnc2ccc(I)cc12`, the T/C by setting is: (dose: 3.13 mg/kg/injection, vehicle: other) 111 % of control; (dose: 6.25 mg/kg/injection, vehicle: other) 115 % of control; (dose: 12.5 mg/kg/injection, vehicle: other) 109 % of control; (dose: 25.0 mg/kg/injection, vehicle: other) 110 % of control; (dose: 50.0 mg/kg/injection, vehicle: other) 114 % of control.

For `Nc1nc(-c2cccc(S(=O)(=O)O)c2)c(Br)c(=O)[nH]1`, the T/C under setting [3] is 118 % of control and the T/C under setting [4] was 122 % of control.

`CN=C(N)N/N=C(\C)c1ccc2c(c1)Cc1ccccc1-2`: the T/C is 111 % of control under setting [10], 118 % of control under setting [1], 119 % of control under setting [2] and 122 % of control under setting [3].
